Reference: patent US12612412B2, “Antiviral heterocyclic compounds” (Enanta Pharmaceuticals, Inc., priority 2021, dated 2026)
pEC50: −log10 of the molar value. Like-named read-outs stand apart in the source and are kept apart here.

Experiments:
[1] = tested on: genotype A, "Long" strain RSV; assay: RSV-A assay (CPE protection in Hep-2 cells, ATPlite readout); type: cell-based, Human respiratory syncytial virus (HRSV); settings: genotype A “Long” strain RSV, MOI 0.1, CPE protection, read-out: Human RSV-A (“Long”)
Procedure, shortened: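 In this cytopathic-effect protection format, infected Hep-2 cultures (MOI 0.1) are exposed to compound for 5 days. Surviving cell ATP is quantified with ATPlite, and EC50 is determined.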

[2] = tested on: recombinant HMPV CAN97-83 containing eGFP (MPV-GFP1); assay: HMPV antiviral assay Method-A (MPV-GFP1 eGFP fluorescence in Vero E6 cells); type: cell-based, Human metapneumovirus (HMPV); settings: read-out: HMPV EC50
Procedure, shortened: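 Vero E6 cells in serum-free OptiMEM with 0.5 μg/mL TPCK-trypsin were infected with eGFP-expressing HMPV CAN97-83 at MOI 0.05, with 8-point twofold dilutions from 8 or 2 μM (0.5% DMSO). After 5 days at 32° C, eGFP fluorescence gave % inhibition versus infected untreated wells. EC50 came from four-parameter logistic fits.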

[3] = human respiratory syncytial virus
[4] = human metapneumovirus, Vero C1008, 120 h

C[C@@H](N)C(=O)Nc1nc2ccc(C(=O)NC[C@](O)(c3cc4c(c(-c5ccc(F)cc5)n3)OC[C@]4(C)C(N)=O)C(F)(F)F)cc2s1 [Example 158]
pEC50 [1]: > 6.70
pEC50 ([2]; Method-A, MPV-GFP1 in Vero E6 cells, eGFP fluorescence after 5 days): < 6.30

COc1cc(C(=O)NC[C@](O)(c2cc3c(c(-c4ccc(F)cc4)n2)OC[C@]3(C)C(N)=O)C(F)(F)F)cc2cc(CO)c(C)nc12 [Example 75]
pEC50 [1, 3]: > 6.70
pEC50 [2, 4]: < 6.30

CC(C)n1cc2cc(C(=O)NC[C@](O)(c3cc4c(c(-c5ccc(F)cc5)n3)OC[C@]4(C)C(N)=O)C(F)(F)F)ccc2n1 [Example 169]
pEC50 [1, 3]: > 6.70
pEC50 [2, 4]: < 6.30

Cc1cn2cc(C(=O)NC[C@](O)(c3cc4c(c(-c5ccc(F)cc5)n3)OC[C@]4(C)C(N)=O)C(F)(F)F)ccc2n1 [Example 50]
pEC50 [1, 3]: > 6.70
pEC50 [2, 4]: < 6.30

Cc1cnc2c(NC(=O)NC3CC3)cc(C(=O)NC[C@](O)(c3cc4c(c(-c5ccc(F)c(Cl)c5)n3)OC[C@]4(C)C(N)=O)C(F)(F)F)cc2c1 [Example 219]
pEC50 [1, 3]: > 6.70
pEC50 [2, 4]: > 6.30

COc1cc(C(=O)NC[C@](O)(c2cc3c(c(-c4ccc(Cl)c(F)c4)n2)OC[C@]3(C)C(N)=O)C(F)(F)F)cc2cc(C3CC3)nn12 [Example 301]
pEC50 [1, 3]: > 6.70
pEC50 [2, 4]: > 6.30

C[C@]1(C(N)=O)COc2c1cc([C@@](O)(CNC(=O)c1cc(Cl)c3nn(C4CC4)cc3c1)C(F)(F)F)nc2-c1ccc(F)c(Cl)c1 [Example 85]
pEC50 [1, 3]: > 6.70
pEC50 [2, 4]: > 6.30

C[C@]1(C(N)=O)COc2c1cc([C@@](O)(CNC(=O)c1cc(Cl)c3[nH]ncc3c1)C(F)(F)F)nc2-c1ccc(F)cc1 [Example 103]
pEC50 [1, 3]: > 6.70
pEC50 [2, 4]: > 6.30

Cc1cnc2c(NC(=O)N3CCCC3)cc(C(=O)NC[C@](O)(c3cc4c(c(-c5ccc(F)cc5)n3)OC[C@]4(C)C(N)=O)C(F)(F)F)cc2c1 [Example 226]
pEC50 [1, 3]: > 6.70
pEC50 [2, 4]: < 6.30

C[C@]1(C(N)=O)COc2c1cc([C@@](O)(CNC(=O)c1cc(F)c3nc(N)sc3c1)C(F)(F)F)nc2-c1ccc(F)c(Cl)c1 [Example 12]
pEC50 [1, 3]: > 6.70
pEC50 [2, 4]: > 6.30

COc1cc(C(=O)NC[C@](O)(c2cc3c(c(-c4ccc(F)c(Cl)c4)n2)OC[C@]3(C)C(N)=O)C(F)(F)F)cn2cc(C3CC3)nc12 [Example 59]
pEC50 [1, 3]: > 6.70
pEC50 [2, 4]: > 6.30

COc1cc(C(=O)NC[C@](O)(c2cc3c(c(-c4ccc(F)cc4)n2)OC[C@]3(C)C(N)=O)C(F)(F)F)ccc1OC[C@@H](C)OP(=O)(O)O [Example 149]
pEC50 [1, 3]: > 6.70
pEC50 [2, 4]: < 6.30

COc1cc(C(=O)NC[C@](O)(c2cc3c(c(-c4ccc(F)cc4)n2)OC[C@@]3(C(N)=O)C2CC2)C(F)(F)F)cc2cn(C3CC3)nc12 [Example 280]
pEC50 [1, 3]: > 6.70
pEC50 [2, 4]: > 6.30

COc1cc(C(=O)NC[C@](O)(c2cc3c(c(-c4ccc(F)cc4)n2)OC[C@]3(C)C(N)=O)C(F)(F)F)cc2cc(C(F)(F)F)c(C)nc12 [Example 83]
pEC50 [1, 3]: > 6.70
pEC50 [2, 4]: > 6.30

C[C@]1(C(N)=O)COc2c1cc([C@@](O)(CNC(=O)c1cc(Cl)c3[nH]c(C4CC4)nc3c1)C(F)(F)F)nc2-c1ccc(F)cc1 [Example 94]
pEC50 [1, 3]: > 6.70
pEC50 [2, 4]: < 6.30

COc1cc(C(=O)NC[C@](O)(c2cc3c(c(-c4ccc(Cl)c(F)c4)n2)OC[C@]3(C)C(N)=O)C(F)(F)F)cc2cn(C(F)F)nc12 [Example 300]
pEC50 [1, 3]: > 6.70
pEC50 [2, 4]: > 6.30

COc1cc(C(=O)NC[C@](O)(c2cc3c(c(-c4ccc(F)cc4)n2)OC[C@]3(C)C(N)=O)C(F)(F)F)cn2cc(CF)nc12 [Example 62]
pEC50 [1, 3]: > 6.70
pEC50 [2, 4]: < 6.30

COc1cc(C(=O)NC[C@](O)(c2cc3c(c(-c4ccc(F)cc4)n2)OC[C@]3(C)C(N)=O)C(F)(F)F)cc2cc(C)c(CO)nc12 [Example 4]
pEC50 [1, 3]: > 6.70
pEC50 [2, 4]: > 6.30

C[C@]1(C(N)=O)COc2c1cc([C@@](O)(CNC(=O)c1ccc3nc(CF)sc3c1)C(F)(F)F)nc2-c1ccc(F)cc1 [Example 142]
pEC50 [1, 3]: > 6.70
pEC50 [2, 4]: < 6.30

C[C@]1(C(N)=O)COc2c1cc([C@@](O)(CNC(=O)c1ccc3nc(NCCN)sc3c1)C(F)(F)F)nc2-c1ccc(F)cc1 [Example 165]
pEC50 [1, 3]: > 6.70
pEC50 [2, 4]: < 6.30

C[C@]1(C(N)=O)COc2c1cc([C@@](O)(CNC(=O)c1cc(F)c3nc(N)sc3c1)C(F)(F)F)nc2-c1ccc(Cl)c(F)c1 [Example 305]
pEC50 [1, 3]: > 6.70
pEC50 [2, 4]: > 6.30

C[C@]1(C(N)=O)COc2c1cc([C@@](O)(CNC(=O)c1cc(NC(N)=O)c3ncc(Cl)cc3c1)C(F)(F)F)nc2-c1ccc(F)cc1 [Example 224]
pEC50 [1, 3]: > 6.70
pEC50 [2, 4]: < 6.30

C[C@]1(C(N)=O)COc2c1cc([C@@](O)(CNC(=O)c1cc(OC3CC3)c3nc(C4CC4)sc3c1)C(F)(F)F)nc2-c1ccc(F)cc1 [Example 96]
pEC50 [1, 3]: > 6.70
pEC50 [2, 4]: > 6.30

COc1cc(C(=O)NC[C@](O)(c2cc3c(c(-c4ccc(F)cc4)n2)OC[C@]3(C)C(N)=O)C(F)(F)F)cc2cc(C3CC3)c(C)nc12 [Example 78]
pEC50 [1, 3]: > 6.70
pEC50 [2, 4]: < 6.30

COc1cc(C(=O)NC[C@](O)(c2cc3c(c(-c4ccc(F)cc4)n2)OC[C@]3(C)C(N)=O)C(F)(F)F)ccc1OC[C@H](O)C(F)(F)F [Example 132]
pEC50 [1, 3]: > 6.70
pEC50 [2, 4]: < 6.30

CCc1cc2cc(C(=O)NC[C@](O)(c3cc4c(c(-c5ccc(F)cc5)n3)OC[C@]4(C)C(N)=O)C(F)(F)F)cc(OC)c2nc1C [Example 174]
pEC50 [1, 3]: > 6.70
pEC50 [2, 4]: < 6.30

COc1cc(C(=O)NC[C@](O)(c2cc3c(c(-c4ccc(F)cc4)n2)OC[C@@]3(C(N)=O)C2CC2)C(F)(F)F)cc2cccnc12 [Example 268]
pEC50 [1, 3]: > 6.70
pEC50 [2, 4]: < 6.30

COc1cc(C(=O)NC[C@](O)(c2cc3c(c(-c4ccc(F)cc4)n2)OC[C@]3(C)C(N)=O)C(F)(F)F)cc2cc(C3CC3)c(CO)nc12 [Example 166]
pEC50 [1, 3]: > 6.70
pEC50 [2, 4]: < 6.30

Cc1nc2c(OC3CC3)cc(C(=O)NC[C@](O)(c3cc4c(c(-c5ccc(F)cc5)n3)OC[C@]4(C)C(N)=O)C(F)(F)F)cc2s1 [Example 80]
pEC50 [1, 3]: > 6.70
pEC50 [2, 4]: > 6.30

C[C@H](COc1ccc(C(=O)NC[C@](O)(c2cc3c(c(-c4ccc(F)cc4)n2)OC[C@]3(C)C(N)=O)C(F)(F)F)cc1OC1CC1)OP(=O)(O)O [Example 3]
pEC50 [1, 3]: > 6.70
pEC50 [2, 4]: < 6.30

NC(=O)[C@@]1(C2CC2)COc2c1cc([C@@](O)(CNC(=O)c1cc(F)c3nc(N)sc3c1)C(F)(F)F)nc2-c1ccc(F)cc1 [Example 263]
pEC50 [1, 3]: > 6.70
pEC50 [2, 4]: > 6.30

C[C@]1(C(N)=O)COc2c1cc([C@@](O)(CNC(=O)c1ccc3nc(C4CC4)sc3c1)C(F)(F)F)nc2-c1ccc(F)cc1 [Example 14]
pEC50 [1, 3]: > 6.70
pEC50 [2, 4]: > 6.30

COc1cc(C(=O)NC[C@](O)(c2cc3c(c(-c4ccc(F)cc4)n2)OC[C@]3(C)C(N)=O)C(F)(F)F)ccc1OC[C@H](O)C(F)F [Example 136]
pEC50 [1, 3]: > 6.70
pEC50 [2, 4]: < 6.30

Cc1cnc2c(Nc3ccc(C4CC4)nn3)cc(C(=O)NC[C@](O)(c3cc4c(c(-c5ccc(F)cc5)n3)OC[C@]4(C)C(N)=O)C(F)(F)F)cc2c1 [Example 114]
pEC50 [1, 3]: > 6.70
pEC50 [2, 4]: > 6.30

C[C@]1(C(N)=O)COc2c1cc([C@@](O)(CNC(=O)c1cc(Cl)c3nc(N)oc3c1)C(F)(F)F)nc2-c1ccc(F)cc1 [Example 91]
pEC50 [1, 3]: > 6.70
pEC50 [2, 4]: < 6.30
